Measured values published in patent US11331312B2, “Treatment of H-Ras-driven tumors” (MEMORIAL SLOAN-KETTERING CANCER CENTER, priority 2014, dated 2022).
Entries after “also recorded” stand apart in the source; their conditions may differ.

Legend:
[1] = Body weight and tolerability of treated mice; format: in vivo, mouse; details: 80 mg/kg BID
Procedure: (§1) The activity of these compounds in vivo was explored. Mice were treated for 2 weeks with tipifarnib or lonafarnib at 80 mg/kg twice daily (drug mixed in 20% beta-cyclodextran and given by gavage). […] Treatment with FTIs was well tolerated in the mice with no significant differences in animal weight between vehicle and drug at 14 days (FIG. 6). Next mice were treated with Tipifarnib or vehicle for an extended time course. Of note, for this experiment tumors in each group were size-matched at the time of treatment initiation (FIG. 8).

[2] = test system: Hras-G12V+/+/p53-null thyroid cancers; assay: 2-week FTI treatment of mice with thyroid cancers, tumor volume by 3D ultrasound; format: in vivo, mouse; details: 80 mg/kg twice daily by gavage, 2 weeks (14 days)
Procedure: FIG. 3 is a schematic showing the design of the in vivo study of tipifarnib in Tpo-Cre/FR-Hras^G12V/p53^flox/flox mice. Mice were treated for 14 days with tipifarnib 80 mg/kg BID by gavage. Tipifarnib was prepared in 20% beta-cyclodextran. 3D ultrasound was performed before and after treatment to assess percent change in tumor volume.
Tumors in each treatment group were sized matched at the beginning of therapy.
FIG. 5 is a waterfall plot of the same mice but with an additional cohort of mice treated with lonafarnib added. Of note the lonafarnib treated mice were not size matched to the vehicle group.
as §1

[3] = test system: MAPK pathway signaling effectors; assay: Western blots of MAPK pathway signaling effectors in HP-ATC1 mouse cell line; format: cell-based; details: HP-ATC1 cells, 1.5% serum, increasing concentrations of drug, Western blot
Procedure: (§2) FIGS. 2A and B show the results of exposure of mouse cell lines from tumor bearing Tpo-Cre/FR-HrasG12V/p53flox/flox mice to farnesyltransferase inhibitors. Mouse cell lines were generated from tumor bearing Tpo-Cre/FR-HrasG12V/p53flox/flox mice by collagenase/dispase digestion and maintained in Coon's F-12 media with serum. After 15 passages, cells were plated in 1.5% serum and exposed to increasing concentrations of indicated drug. (A) Western blots were performed for indicated proteins (antibodies from Cell Signaling with exception of Hras which was from Santa Cruz).
(§3) Development and characterization of mouse cell lines from TPO-Cre, Hras-G12V+/+, p53f/f mice: In order to study this model in vitro, we developed a mouse cell line (HP-ATC1) from an animal with ATC. The cell line was confirmed to harbor the HrasG12V mutation, and maintained primary tumor characteristics, including its spindle shape and the relative expression of E-cadherin and vimentin through serial passaging (x6-10).
(§4) The FTIs Tipifarnib and Lonafarnib block MAPK signaling and growth of mouse Tpo-Cre, HRas-G12V+/+, p53f/f cell line: There are currently no therapies that directly target oncogenic forms of oncogenic Ras.
(§5) Mouse cell lines were generated from tumor bearing Tpo-Cre/FR-HrasG12V/p53flox/flox mice by collagenase/dispase digestion and maintained in Coon's F-12 media with serum. […]

[4] = test system: HP-ATC1 cells; assay: 6 day proliferation assay in HP-ATC1 mouse cell line; format: cell-based; details: 1.5% serum, 6 day assay, increasing concentrations of drug
Procedure: as §2, §3, §4, §5

| SMILES | animal weight, drug vs vehicle ([1]; 14 days) | toxicity / tolerability ([1]; two weeks of treatment) | change in thyroid tumor volume (ultrasound) compared to vehicle-treated mice [2] | inhibition of MAPK effector phosphorylation [3] | inhibition of proliferation [4] |
| --- | --- | --- | --- | --- | --- |
| Cn1cncc1[C@@](N)(c1ccc(Cl)cc1)c1ccc2c(c1)c(-c1cccc(Cl)c1)cc(=O)n2C [tipifarnib] | No differences | minimal toxicity |  |  |  |
| NC(=O)N1CCC(CC(=O)N2CCC([C@H]3c4ncc(Br)cc4CCc4cc(Cl)cc(Br)c43)CC2)CC1 [lonafarnib] |  |  | Consistent inhibition of growth; also recorded: Significant reduction in thyroid tumor volume | dose-dependent inhibition | dose-dependent inhibition of proliferation |
